From patent US10894797B2, “Fused tricyclic ring derivatives as SRC homology-2 phosphatase inhibitors” (Nikang Therapuetics, Inc., priority 2018, dated 2021) come the findings set out here.

SMILES strings stand for the structures.

For the experiment, the target named is SHP2 (Homo sapiens (Human), UniProt Q06124). As to the kind of experiment: SHP2 allosteric inhibition assay (DiFMUP substrate, bisphos-IRS1 peptide activation). It counts as biochemical. Conditions: 0.33 nM SHP2, 0.5 μM bisphos-IRS1 peptide, 100 uM DiFMUP, room temperature. How it is done: At the basal state, SHP2 is auto-inhibited and access of substrates to the catalytic site is blocked by the […] interactions between the SH2 domains and the PTP domain. When bis-tyrosyl-phosphorylated peptides bind to SH2 domain of SHP2, the PTP domain becomes available for substrate recognition and reaction catalysis and SHP2 is allosterically activated. SHP2 catalytic activity can be measured using a fluorogenic artificial substrate DiFMUP.
Chain of SHP2 (Q06124 whole entry, the tested form may be a part): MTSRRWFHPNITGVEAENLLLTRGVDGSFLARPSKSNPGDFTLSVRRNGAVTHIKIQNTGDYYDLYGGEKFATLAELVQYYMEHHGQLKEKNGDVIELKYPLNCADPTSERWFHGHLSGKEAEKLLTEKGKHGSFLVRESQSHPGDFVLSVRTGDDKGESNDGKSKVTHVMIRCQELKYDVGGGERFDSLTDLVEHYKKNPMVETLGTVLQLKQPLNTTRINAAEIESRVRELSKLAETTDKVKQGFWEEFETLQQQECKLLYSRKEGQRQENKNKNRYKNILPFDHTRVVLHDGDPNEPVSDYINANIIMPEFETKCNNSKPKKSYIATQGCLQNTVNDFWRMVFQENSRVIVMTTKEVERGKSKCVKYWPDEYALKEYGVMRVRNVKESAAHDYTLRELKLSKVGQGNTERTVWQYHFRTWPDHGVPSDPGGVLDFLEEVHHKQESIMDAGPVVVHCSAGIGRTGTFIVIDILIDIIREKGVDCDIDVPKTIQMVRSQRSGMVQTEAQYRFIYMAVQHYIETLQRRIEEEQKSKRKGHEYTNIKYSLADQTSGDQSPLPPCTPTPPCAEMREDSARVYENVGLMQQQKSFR
The phosphatase reactions were carried out at room temperature in 384-well black polystyrene plates (Greiner Bio-One, Cat #784076) using assay buffers containing 60 mM HEPES, pH 7.2, 75 mM NaCl, 75 mM KCl, 1 mM EDTA, 0.05% P-20, and 5 mM DTT.
0.33 nM of SHP2 was co-incubated with of 0.5 μM of bisphos-IRS 1 peptide (sequence: H2N-LN(pY)IDLDLV(dPEG8)LST(pY)ASINFQK-amide) and various concentrations of compounds for 30-60 min at room temperature. Then the reaction was initiated by addition of the surrogate substrate DiFMUP (Invitrogen, Cat #D6567, 100 uM final).
The real-time conversion of DiFMUP to DiFMU (6,8-difluoro-7-hydroxyl-4-methyl-coumarin) was measured every 5 min for 30 min using a microplate reader (CLARIOstar, BMG Labtech) with excitation and emission wavelengths of 340 nm and 450 nm, respectively. Initial reaction rates were determined by linear fitting of the data and the inhibitor dose response curves were analyzed using normalized IC50 regression curve fitting with control-based normalization.
For orientation: IC50 means the concentration that gives 50% inhibition. A lower IC50 goes with greater potency. In the case of `C[C@@H]1OCC2(CCN(c3ncc(Sc4ccnc5c4OC[C@@H]4C[C@H](COCC6COC6)CN54)nc3CO)CC2)[C@@H]1N` [Compound 34, (3-((3S,4S)-4-amino-3-methyl-2-oxa-8-azaspiro[4.5]decan-8-yl)-6-(((6aS,8S)-8-((oxetan-3-ylmethoxy)methyl)-6a,7,8,9-tetrahydro-6H-pyrido[3,2-b]pyrrolo[1,2-d][1,4]oxazin-4-yl)thio)pyrazin-2-yl)methanol], the midpoint of inhibition, the IC50, lay at 6.2 nM.

The compound `COC[C@@H]1C[C@H]2COc3c(Sc4cnc(N5CCC6(CC5)CO[C@@H](C)[C@H]6N)c(CO)n4)ccnc3N2C1` [Compound 30, (3-((3S,4S)-4-amino-3-methyl-2-oxa-8-azaspiro[4.5]decan-8-yl)-6-(((6aS,8R)-8-(methoxymethyl)-6a,7,8,9-tetrahydro-6H-pyrido[3,2-b]pyrrolo[1,2-d][1,4]oxazin-4-yl)thio)pyrazin-2-yl)methanol] showed a concentration for half-maximal inhibition (IC50) of 3.8 nM.

`COC[C@H]1C[C@H]2COc3c(Sc4cnc(N5CCC6(CC5)CO[C@@H](C)[C@H]6N)c(CO)n4)ccnc3N2C1` [Compound 29, (3-((3S,4S)-4-amino-3-methyl-2-oxa-8-azaspiro[4.5]decan-8-yl)-6-(((6aS,8S)-8-(methoxymethyl)-6a,7,8,9-tetrahydro-6H-pyrido[3,2-b]pyrrolo[1,2-d][1,4]oxazin-4-yl)thio)pyrazin-2-yl)methanol]: 3.6 nM corresponded to half-maximal inhibition (IC50).

As for `CO[C@H]1C[C@@H]2COc3c(Sc4cnc(N5CCC6(CC5)CO[C@@H](C)[C@H]6N)c(CO)n4)ccnc3N2C1` [Compound 10, (3-((3S,4S)-4-amino-3-methyl-2-oxa-8-azaspiro[4.5]decan-8-yl)-6-(((6aR,8S)-8-methoxy-6a,7,8,9-tetrahydro-6H-pyrido[3,2-b]pyrrolo[1,2-d][1,4]oxazin-4-yl)thio)pyrazin-2-yl)methanol], the midpoint of inhibition, the IC50, lay at 10 nM.

On to `CO[C@@H]1C[C@H]2COc3c(Sc4cnc(N5CCC6(CC5)CO[C@@H](C)[C@H]6N)c(CO)n4)ccnc3N2C1` [Compound 6, (3-((3S,4S)-4-amino-3-methyl-2-oxa-8-azaspiro[4.5]decan-8-yl)-6-(((6aS,8R)-8-methoxy-6a,7,8,9-tetrahydro-6H-pyrido[3,2-b]pyrrolo[1,2-d][1,4]oxazin-4-yl)thio)pyrazin-2-yl)methanol], for which 6 nM corresponded to half-maximal inhibition (IC50).

`COCOC[C@H]1C[C@H]2COc3c(Sc4cnc(N5CCC6(CC5)Cc5ncccc5[C@H]6N)cn4)ccnc3N2C1` [Compound 46, (S)-1′-(5-(((6aS,8S)-8-((methoxymethoxy)methyl)-6a,7,8,9-tetrahydro-6H-pyrido[3,2-b]pyrrolo[1,2-d][1,4]oxazin-4-yl)thio)pyrazin-2-yl)-5,7-dihydrospiro[cyclopenta[b]pyridine-6,4′-piperidin]-5-amine] returned a 50% inhibitory concentration (IC50) of 3.9 nM.

`C[C@@H]1OCC2(CCN(c3ncc(Sc4ccnc5c4OCC4CS(=O)(=O)CCN54)nc3CO)CC2)[C@@H]1N` (stereo partly drawn) [Compound 28, 4-((5-((3S,4S)-4-amino-3-methyl-2-oxa-8-azaspiro[4.5]decan-8-yl)-6-(hydroxymethyl)pyrazin-2-yl)thio)-6a,7,9,10-tetrahydro-6H-pyrido[3,2-b][1,4]thiazino[4,3-d][1,4]oxazine 8,8-dioxide] yielded an IC50 of 13 nM. Compared with the last compound, the IC50 is about 3.3-fold higher.

On to `COC[C@H]1C[C@H]2COc3c(Sc4cnc(N5CCC6(CC5)Cc5ncccc5[C@H]6N)c(CO)n4)ccnc3N2C1` [Compound 36, (3-((S)-5-amino-5,7-dihydrospiro[cyclopenta[b]pyridine-6,4′-piperidin]-1′-yl)-6-(((6aS,8S)-8-(methoxymethyl)-6a,7,8,9-tetrahydro-6H-pyrido[3,2-b]pyrrolo[1,2-d][1,4]oxazin-4-yl)thio)pyrazin-2-yl)methanol], for which the “Shp2 IC50(nM)” value is “One of 36 and 37 is 2.7 and the other is 4.2”.

Compound `COCCO[C@H]1C[C@H]2COc3c(Sc4cnc(N5CCC6(CC5)CO[C@@H](C)[C@H]6N)c(CO)n4)ccnc3N2C1` [Compound 15, (3-((3S,4S)-4-amino-3-methyl-2-oxa-8-azaspiro[4.5]decan-8-yl)-6-(((6aS,8S)-8-(2-methoxyethoxy)-6a,7,8,9-tetrahydro-6H-pyrido[3,2-b]pyrrolo[1,2-d][1,4]oxazin-4-yl)thio)pyrazin-2-yl)methanol] showed a 50% inhibitory concentration (IC50) of 10 nM.

For the compound `C[C@@H]1OCC2(CCN(c3ncc(Sc4ccnc5c4OC[C@H]4COCCN54)nc3CO)CC2)[C@@H]1N` [Compound 26, (3-((3S,4S)-4-amino-3-methyl-2-oxa-8-azaspiro[4.5]decan-8-yl)-6-(((R)-6a,7,9,10-tetrahydro-6H-[1,4]oxazino[4,3-d]pyrido[3,2-b][1,4]oxazin-4-yl)thio)pyrazin-2-yl)methanol], the “Shp2 IC50(nM)” value was “one of 26 and 27 is 10 and the other is 8”.

As for `C[C@@H]1OCC2(CCN(c3ncc(Sc4ccnc5c4OC[C@@H]4C[C@@H](F)CN54)nc3CO)CC2)[C@@H]1N` [Compound 4, (3-((3S,4S)-4-amino-3-methyl-2-oxa-8-azaspiro[4.5]decan-8-yl)-6-(((6aS,8R)-8-fluoro-6a,7,8,9-tetrahydro-6H-pyrido[3,2-b]pyrrolo[1,2-d][1,4]oxazin-4-yl)thio)pyrazin-2-yl)methanol], the IC50 stood at 5 nM. That is a single-digit nanomolar value.

Take `COCOC[C@@H]1C[C@H]2COc3c(Sc4cnc(N5CCC6(CC5)CO[C@@H](C)[C@H]6N)c(CO)n4)ccnc3N2C1` [Compound 50, (3-((3S,4S)-4-amino-3-methyl-2-oxa-8-azaspiro[4.5]decan-8-yl)-6-(((6aS,8R)-8-((methoxymethoxy)methyl)-6a,7,8,9-tetrahydro-6H-pyrido[3,2-b]pyrrolo[1,2-d][1,4]oxazin-4-yl)thio)pyrazin-2-yl)methanol]: the IC50 is 3.5 nM.

Turning to `C[C@@H]1OCC2(CCN(c3ncc(Sc4ccnc5c4OC[C@@H]4C[C@H](OC6COC6)CN54)nc3CO)CC2)[C@@H]1N` [Compound 13, (3-((3S,4S)-4-amino-3-methyl-2-oxa-8-azaspiro[4.5]decan-8-yl)-6-(((6aS,8S)-8-(oxetan-3-yloxy)-6a,7,8,9-tetrahydro-6H-pyrido[3,2-b]pyrrolo[1,2-d][1,4]oxazin-4-yl)thio)pyrazin-2-yl)methanol], 8 nM corresponded to half-maximal inhibition (IC50). Compared with the last compound, the IC50 is about 2.3-fold higher.

For `COC[C@H]1C[C@H]2COc3c(Sc4cnc(N5CCC6(CC5)COC5(CCC5)[C@H]6N)c(CO)n4)ccnc3N2C1` [Compound 38, (3-((S)-5-amino-13-oxa-9-azadispiro[3.1.5^6.2^4]tridecan-9-yl)-6-(((6aS,8S)-8-(methoxymethyl)-6a,7,8,9-tetrahydro-6H-pyrido[3,2-b]pyrrolo[1,2-d][1,4]oxazin-4-yl)thio)pyrazin-2-yl)methanol], half-maximal inhibition (IC50) required 5.7 nM.

On to `C[C@@H]1OCC2(CCN(c3ncc(Sc4ccnc5c4OC[C@@H]4C[C@H](n6cccn6)CN54)nc3CO)CC2)[C@@H]1N` [Compound 24, (6-(((6aS,8S)-8-(1H-pyrazol-1-yl)-6a,7,8,9-tetrahydro-6H-pyrido[3,2-b]-pyrrolo[1,2-d][1,4]oxazin-4-yl)thio)-3-((3 S,4S)-4-amino-3-methyl-2-oxa-8-azaspiro[4.5]decan-8-yl)pyrazin-2-yl)methanol], for which the midpoint of inhibition, the IC50, lay at 10 nM.

`C[C@@H]1OCC2(CCN(c3ncc(Sc4ccnc5c4OC[C@@H]4C[C@@H](OC(N)=O)CN54)nc3CO)CC2)[C@@H]1N` [Compound 23, (6aS,8R)-4-((5-((3 S,4S)-4-amino-3-methyl-2-oxa-8-azaspiro[4.5]decan-8-yl)-6-(hydroxymethyl)pyrazin-2-yl)thio)-6a,7,8,9-tetrahydro-6H-pyrido[3,2-b]pyrrolo[1,2-d][1,4]oxazin-8-yl Carbamate] gave an IC50 of 8 nM.

As for `COCOC[C@@H]1C[C@@H]2COc3c(Sc4cnc(N5CCC6(CC5)CO[C@@H](C)[C@H]6N)c(CO)n4)ccnc3N2C1` [Compound 52, (3-((3S,4S)-4-amino-3-methyl-2-oxa-8-azaspiro[4.5]decan-8-yl)-6-(((6aR,8R)-8-((methoxymethoxy)methyl)-6a,7,8,9-tetrahydro-6H-pyrido[3,2-b]pyrrolo[1,2-d][1,4]oxazin-4-yl)thio)pyrazin-2-yl)methanol], the IC50 was determined as 3.7 nM.

`C[C@@H]1OCC2(CCN(c3ncc(Sc4ccnc5c4OC[C@@H]4C[C@H](S(C)(=O)=O)CN54)nc3CO)CC2)[C@@H]1N` [Compound 21, (3-((3S,4S)-4-amino-3-methyl-2-oxa-8-azaspiro[4.5]decan-8-yl)-6-(((6aS,8S)-8-(methylsulfonyl)-6a,7,8,9-tetrahydro-6H-pyrido[3,2-b]pyrrolo[1,2-d][1,4]oxazin-4-yl)thio)pyrazin-2-yl)methanol] came in with an IC50 of 13 nM.

With `COCOC[C@H]1C[C@H]2COc3c(Sc4ncc(N5CCC6(CC5)CO[C@@H](C)[C@H]6N)nc4N)ccnc3N2C1` [Compound 44, (3S,4S)-8-(6-amino-5-(((6aS,8S)-8-((methoxymethoxy)methyl)-6a,7,8,9-tetrahydro-6H-pyrido[3,2-b]pyrrolo[1,2-d][1,4]oxazin-4-yl)thio)pyrazin-2-yl)-3-methyl-2-oxa-8-azaspiro[4.5]decan-4-amine], the concentration for half-maximal inhibition (IC50) amounted to 5.9 nM.
